This is an account of results in PMC6222672, “Pharmacokinetic and Metabolism Studies of 12-Riboside-Pseudoginsengenin DQ by UPLC-MS/MS and UPLC-QTOF-MS^E” (Molecules : A Journal of Synthetic Chemistry and Natural …, 2018).

For series [1] the following is noted: cited from earlier work.
The format of series [2] is in vitro ADME. As to conditions: rat, 100 ng/mL. Here is the method: RPDQ and 20R-panaxadiol stock methanol solutions (1.00 mg/mL) were all prepared with the reference compounds, respectively. Firstly, blank rat plasma was prepared. The blood samples were collected immediately from the abdominal aorta and incubated at 37 °C for 30 min. The plasma was separated by centrifugation at 4000 rpm for 15 min, and was frozen at −20 °C until analysis. By spiking the dilute solutions with blank rat plasma, calibration curves were plotted to produce the points equivalent to 5, 10, 25, 50, 100, 300, 500, and 1000 ng/mL for RPDQ. […] All the QC and calibration standards samples were prepared freshly before analysis. The specificity, linearity, LLOQ, precision and accuracy, extraction recovery, matrix effect, diluted reliability, and stability of the method were validated by following a non-clinical drug pharmacokinetic study technical guideline (China Food And Drug Administration 2014) and the Bioanalytical Method Validation Guideline (Chinese Pharmacopoeia 2015, Vol. 4). Specificity was assessed by comparing blank plasma samples, plasma was spiked with RPDQ and 20R-panaxadiol, and plasma samples were collected after administration. Linearity was analyzed through weighted regression (1/x^2) of peak area ratios (y) of RPDQ to 20R-panaxadiol versus nominal concentration (x) in plasma. […] The intra- and inter-day precision and accuracy were evaluated with the analysis of six replicate QC samples on three consecutive days, respectively. The extraction recovery and matrix effect at three QC concentrations were assayed. By comparing peak areas of RPDQ and 20R-panaxadiol in extracted QC samples with those in post-extracted blank plasma samples, the recoveries were calculated. Moreover, by comparing the peak area of samples spiked after extraction with that of the neat solution’s equivalent concentration, the matrix effect was then evaluated. Stability was evaluated by analyzing replicate QC samples, which were stored at −20 °C for two weeks at room temperature for 4 h, and experienced three freeze/thaw cycles (from −20 °C to room temperature) on consecutive days. The stabilities of RPDQ in stock solutions at 15 °C and stored in plastic autosampler vials for 16 h at 10 °C were also assessed. Five-fold higher concentrations of QC were achieved by adding moderate RPDQ to blank plasma. The samples were then diluted and analyzed with undiluted calibration standards. The accuracy and precision were within acceptable limits (± 15%).

Series [3] is described as follows: Metabolite identification in rat plasma, bile, urine and feces by UPLC-QTOF-MSE. Format: in vivo. To be noted: rats, RPDQ 48 mg/kg i.g. Here is the method: For a metabolism study, RPDQ (48 mg/kg, i.g.) was administered to obtain a high concentration of metabolites. […] The pooled plasma sample (500 μL) was then added with methanol (2 mL) to vortex and precipitate proteins. Subsequently, the mixtures were centrifuged (10,000 rpm, 4 °C, 10 min) to obtain the supernatant, which was then evaporated by N2 to obtain the residue. Methanol (100 μL) was used to reconstitute the residue. In order to obtain bile samples, rats were anaesthetized with urethane (1.0 g/kg, intraperitoneal injection). After making an abdominal incision, the bile was collecting by surgically inserting a plastic cannula into the bile ducts. Prior to administration, blank bile was collected for 2 h. After administration, bile samples were collected for 12 h. By using metabolism cages, blank and dosed urine and feces samples were also collected prior to administration or 24 h after administration. After diluting each urine or bile sample (300 μL) with 1 mL of methanol, the mixture was centrifuged (10,000 rpm, 4 °C, 10 min) to obtain the supernatant, which was then evaporated by N2 to obtain the dried urine or bile residue. Methanol (50 μL) was then used to dissolve each residue. After centrifuging (10,000 rpm, 4 °C, 10 min), the clear supernatants were used for the analysis. […] Metabolic characterization of RPDQ was analyzed using UNIFI 1.7.0 software (Waters, Manchester, UK).

[4] abbreviates: after intragastric administration.

Structures are written as SMILES. Where two headings read alike, the source gives them in different places.

By bioavailability is commonly meant dose-corrected exposure relative to a reference, in per cent. In the case of `CC(C)=CCC[C@](C)(O[C@@H]1O[C@H](CO[C@@H]2OC[C@@H](O)[C@H](O)[C@H]2O)[C@@H](O)[C@H](O)[C@H]1O)[C@H]1CC[C@]2(C)[C@@H]1[C@H](O)C[C@@H]1[C@@]3(C)CC[C@H](O[C@@H]4O[C@H](CO)[C@@H](O)[C@H](O)[C@H]4O[C@@H]4O[C@H](CO)[C@@H](O)[C@H](O)[C@H]4O)C(C)(C)[C@@H]3CC[C@]12C` [Rb3], in series [1] (setting [4]), the bioavailability was 0.52% and the “biological half time (t1/2)” value is given as 21.1 h.

For `CC(C)=CCC[C@](C)(O[C@@H]1O[C@H](CO)[C@@H](O)[C@H](O)[C@H]1O)[C@H]1CC[C@]2(C)[C@@H]1[C@H](O)C[C@@H]1[C@@]3(C)CC[C@H](O)C(C)(C)[C@@H]3CC[C@]12C` [CK, Ginsenoside CK], in series [1] (setting [4]), the bioavailability is 4.30%.

As to `CC1(C)CCCC(C)(C2CC[C@]3(C)C2C(O)CC2C4(C)CCC(O)C(C)(C)C4CCC23C)O1` (stereo partly drawn) [IS, 20R-panaxadiol, reference compound], the Mean concentration was 94.11 ± 3.47 ng/mL in series [2], 92.34 ± 3.12 ng/mL in series [2] (4 h), 91.34 ± 2.31 ng/mL in series [2] (16 h) and 94.74 ± 4.25 ng/mL in series [2] (14 d). The Accuracy is on record as −5.89% in series [2] (3 freeze-thaw cycles), −7.66% in series [2] (4 h), −8.66% in series [2] (16 h) and −5.26% in series [2] (14 d).

For the compound `CC(C)=CCC[C@](C)(O)[C@H]1CC[C@]2(C)[C@@H]1[C@H](O)C[C@@H]1[C@@]3(C)CC[C@H](O)C(C)(C)[C@@H]3[C@@H](O[C@@H]3O[C@H](CO)[C@@H](O)[C@H](O)[C@H]3O)C[C@]12C` [Rh1], in series [1] (setting [4]), the bioavailability is given as 1.01% and the t1/2 is 25.8 min.

In the case of `CC(C)=CCCC(C)(O)C1CCC2(C)C1C(O)CC1C3(C)CCC(O)C(C)(C)C3CCC12C` (stereo not shown) [protopanaxdiol], in series [1] (rat, in vivo, po), the “bioavailability (F)” value was 36.8% and the “elimination half-life (t1/2)” value was 88.8 min.

Regarding `CC1(C)C(O)CCC2(C)C1CCC1(C)C2CC(O)C2C([C@]3(C)CC[C@@H](C(C)(C)O)O3)CC[C@]21C` (stereo partly shown) [pseudoginsengenin DQ], the “Source (samples in which detected: plasma, bile, feces, urine)” value in series [3] is on record as “P,B, F,U”. Further, the “biological half time (t1/2)” value in series [1] (setting [4]) is given as 5.97 h.

Take `CC(C)=CCC[C@](C)(O[C@@H]1O[C@H](CO[C@@H]2O[C@H](CO)[C@@H](O)[C@H](O)[C@H]2O)[C@@H](O)[C@H](O)[C@H]1O)[C@H]1CC[C@]2(C)[C@@H]1[C@H](O)C[C@@H]1[C@@]3(C)CC[C@H](O[C@@H]4O[C@H](CO)[C@@H](O)[C@H](O)[C@H]4O[C@@H]4O[C@H](CO)[C@@H](O)[C@H](O)[C@H]4O)C(C)(C)[C@@H]3CC[C@]12C` [Rb1, Ginsenosides Rb1]: in series [1] (setting [4]), the bioavailability is on record as 0.78% and the “biological half time (t1/2)” value is 9.8 h.

As for `CC(C)=CCC[C@](C)(O[C@@H]1O[C@H](CO[C@@H]2OC[C@H](O)[C@H](O)[C@H]2O)[C@@H](O)[C@H](O)[C@H]1O)[C@H]1CC[C@]2(C)[C@@H]1[C@H](O)C[C@@H]1[C@@]3(C)CC[C@H](O[C@@H]4O[C@H](CO)[C@@H](O)[C@H](O)[C@H]4O[C@@H]4O[C@H](CO)[C@@H](O)[C@H](O)[C@H]4O)C(C)(C)[C@@H]3CC[C@]12C` [Rb2], in series [1] (setting [4]), the bioavailability is listed as 0.08% and the “biological half time (t1/2)” value was 23.1 h.

For `CC(C)=CCC[C@](C)(O[C@@H]1O[C@H](CO)[C@@H](O)[C@H](O)[C@H]1O)[C@H]1CC[C@]2(C)[C@@H]1[C@H](O)C[C@@H]1[C@@]3(C)CC[C@H](O)C(C)(C)[C@@H]3[C@@H](O[C@@H]3O[C@H](CO)[C@@H](O)[C@H](O)[C@H]3O)C[C@]12C` [Rg1], in series [1] (setting [4]), the bioavailability was 1.33%.
